Laboratory results from the NIST ThermoML archive (doi:10.1016/j.jct.2018.08.035).
Numbers after ± are expanded uncertainties.

Assay: xn = mol fraction of the nth substance listed
Settings: 100 kPa, Liquid, Vibrating tube method

CCC(O)CC [3-pentanol] + C[N+](=O)[O-]
Settings | mass density [kg/m3]
289.95 K, x1 = 0.3 | 1001.59 ± 2.1
289.95 K, x1 = 0.325 | 997.479 ± 2.1
289.95 K, x1 = 0.382 | 989.628 ± 2
289.95 K, x1 = 0.414 | 986.685 ± 2
289.95 K, x1 = 0.486 | 972.227 ± 2.1
289.95 K, x1 = 0.488 | 969.425 ± 2.1
289.95 K, x1 = 0.546 | 945.729 ± 2.2
289.95 K, x1 = 0.573 | 926.782 ± 2.4
289.95 K, x1 = 0.587 | 917.014 ± 2.2
289.95 K, x1 = 0.615 | 902.235 ± 2.2
289.96 K, x1 = 0.246 | 1008.64 ± 2.1
289.96 K, x1 = 0.338 | 995.659 ± 2
289.96 K, x1 = 0.363 | 992.594 ± 2
289.96 K, x1 = 0.407 | 986.452 ± 2
290.05 K, x1 = 0.266 | 1004.43 ± 2.1
290.05 K, x1 = 0.325 | 996.695 ± 2.1
290.05 K, x1 = 0.573 | 925.737 ± 2.4
290.05 K, x1 = 0.587 | 916.65 ± 2.3
290.06 K, x1 = 0.246 | 1008.03 ± 2.2
290.06 K, x1 = 0.275 | 1005.08 ± 2.1
290.06 K, x1 = 0.3 | 1000.6 ± 2.1
290.06 K, x1 = 0.338 | 994.875 ± 2
290.06 K, x1 = 0.363 | 991.838 ± 2
290.06 K, x1 = 0.382 | 988.825 ± 2
290.06 K, x1 = 0.407 | 985.25 ± 2
290.06 K, x1 = 0.414 | 985.261 ± 2
290.06 K, x1 = 0.486 | 971.285 ± 2.1
290.06 K, x1 = 0.488 | 967.998 ± 2.1
290.06 K, x1 = 0.546 | 944.207 ± 2.2
290.06 K, x1 = 0.615 | 897.967 ± 2.3
290.15 K, x1 = 0.246 | 1007.82 ± 2.2
290.15 K, x1 = 0.266 | 1003.31 ± 2
290.15 K, x1 = 0.275 | 1003.66 ± 2.1
290.15 K, x1 = 0.3 | 999.813 ± 2.1
290.15 K, x1 = 0.325 | 995.904 ± 2
290.15 K, x1 = 0.363 | 990.879 ± 2
290.15 K, x1 = 0.382 | 987.982 ± 2
290.15 K, x1 = 0.407 | 984.083 ± 2
290.15 K, x1 = 0.414 | 984.081 ± 2
290.15 K, x1 = 0.486 | 970.021 ± 2.1
290.15 K, x1 = 0.488 | 967.145 ± 2.1
290.15 K, x1 = 0.546 | 942.592 ± 2.2
290.15 K, x1 = 0.573 | 923.887 ± 2.3
290.15 K, x1 = 0.587 | 916.211 ± 2.3
290.15 K, x1 = 0.615 | 897.189 ± 2.3
290.15 K, x1 = 0.629 | 888.276 ± 1.9
290.16 K, x1 = 0.338 | 994.25 ± 2
290.25 K, x1 = 0.246 | 1007.68 ± 2.2
290.25 K, x1 = 0.266 | 1002.5 ± 2
290.25 K, x1 = 0.275 | 1002.12 ± 2.1
290.25 K, x1 = 0.3 | 999.25 ± 2
290.25 K, x1 = 0.325 | 995.232 ± 2.1
290.25 K, x1 = 0.363 | 990.096 ± 2
290.25 K, x1 = 0.382 | 987.239 ± 2
290.25 K, x1 = 0.407 | 983.056 ± 2
290.25 K, x1 = 0.414 | 982.887 ± 2
290.25 K, x1 = 0.486 | 968.242 ± 2.1
290.25 K, x1 = 0.488 | 965.719 ± 2.1
290.25 K, x1 = 0.546 | 941.205 ± 2.2
290.25 K, x1 = 0.573 | 924.811 ± 2.4
290.25 K, x1 = 0.587 | 914.293 ± 2.3
290.25 K, x1 = 0.615 | 896.918 ± 2.2
290.26 K, x1 = 0.338 | 993.457 ± 2
290.35 K, x1 = 0.246 | 1007.56 ± 2.2
290.35 K, x1 = 0.3 | 998.453 ± 2.1
290.35 K, x1 = 0.338 | 992.611 ± 2
290.35 K, x1 = 0.363 | 989.111 ± 2
290.35 K, x1 = 0.382 | 986.379 ± 2
290.35 K, x1 = 0.407 | 982.318 ± 2
290.35 K, x1 = 0.414 | 981.695 ± 2
290.35 K, x1 = 0.486 | 966.969 ± 2.1
290.35 K, x1 = 0.546 | 939.634 ± 2.2
290.35 K, x1 = 0.573 | 919.469 ± 2.4
290.35 K, x1 = 0.587 | 912.051 ± 2.2
290.35 K, x1 = 0.615 | 896.796 ± 2.1
290.36 K, x1 = 0.266 | 1001.61 ± 2.1
290.36 K, x1 = 0.275 | 1000.44 ± 2.1
290.36 K, x1 = 0.325 | 994.188 ± 2.1
290.36 K, x1 = 0.488 | 964.297 ± 2.1
290.45 K, x1 = 0.246 | 1007.43 ± 2.2
290.45 K, x1 = 0.275 | 998.669 ± 2.1
290.45 K, x1 = 0.363 | 988.212 ± 2
290.45 K, x1 = 0.382 | 985.548 ± 2
290.45 K, x1 = 0.407 | 981.549 ± 2
290.45 K, x1 = 0.414 | 980.935 ± 2
290.45 K, x1 = 0.486 | 965.653 ± 2.1
290.45 K, x1 = 0.488 | 962.338 ± 2.1
290.45 K, x1 = 0.546 | 938.388 ± 2.2
290.45 K, x1 = 0.573 | 918.938 ± 2.3
290.45 K, x1 = 0.587 | 911.848 ± 2.3
290.45 K, x1 = 0.615 | 891.445 ± 1.9
290.46 K, x1 = 0.266 | 1000.04 ± 2.1
290.46 K, x1 = 0.3 | 997.097 ± 2.1
290.46 K, x1 = 0.325 | 993.308 ± 2
290.46 K, x1 = 0.338 | 991.804 ± 2
290.55 K, x1 = 0.246 | 1007.31 ± 2.2
290.55 K, x1 = 0.363 | 987.195 ± 2
290.55 K, x1 = 0.382 | 984.63 ± 2
290.55 K, x1 = 0.407 | 980.769 ± 2
290.55 K, x1 = 0.414 | 980.125 ± 2
290.55 K, x1 = 0.486 | 963.548 ± 2.1
290.55 K, x1 = 0.546 | 936.105 ± 2.2
290.55 K, x1 = 0.573 | 918.841 ± 2.4
290.55 K, x1 = 0.587 | 907.457 ± 2.4
290.55 K, x1 = 0.615 | 891.334 ± 1.9
290.56 K, x1 = 0.266 | 999.223 ± 2.1
290.56 K, x1 = 0.275 | 997.256 ± 2
290.56 K, x1 = 0.3 | 995.648 ± 2.1
290.56 K, x1 = 0.325 | 992.372 ± 2
290.56 K, x1 = 0.338 | 990.851 ± 2
290.56 K, x1 = 0.488 | 960.605 ± 2.1
290.65 K, x1 = 0.246 | 1007.18 ± 2.2
290.65 K, x1 = 0.275 | 996.456 ± 2
290.65 K, x1 = 0.363 | 986.092 ± 2
290.65 K, x1 = 0.382 | 983.656 ± 2
290.65 K, x1 = 0.407 | 979.953 ± 2
290.65 K, x1 = 0.414 | 979.293 ± 2
290.65 K, x1 = 0.486 | 962.186 ± 2.1
290.65 K, x1 = 0.488 | 958.456 ± 2.1
290.65 K, x1 = 0.546 | 933.71 ± 2.2
290.65 K, x1 = 0.573 | 914.236 ± 2.3
290.65 K, x1 = 0.587 | 907.308 ± 2.2
290.65 K, x1 = 0.615 | 891.207 ± 1.9
290.66 K, x1 = 0.266 | 998.714 ± 2.2
290.66 K, x1 = 0.3 | 994.016 ± 2.1
290.66 K, x1 = 0.325 | 991.399 ± 2
290.66 K, x1 = 0.338 | 989.957 ± 2
290.75 K, x1 = 0.246 | 1007.05 ± 2.2
290.75 K, x1 = 0.266 | 998.54 ± 2.2
290.75 K, x1 = 0.275 | 995.309 ± 2.1
290.75 K, x1 = 0.338 | 988.906 ± 2
290.75 K, x1 = 0.363 | 984.963 ± 2
290.75 K, x1 = 0.382 | 982.614 ± 2
290.75 K, x1 = 0.407 | 979.022 ± 2
290.75 K, x1 = 0.414 | 978.364 ± 2
290.75 K, x1 = 0.486 | 960.473 ± 2.1
290.75 K, x1 = 0.488 | 956.964 ± 2.1
290.75 K, x1 = 0.546 | 931.465 ± 2.2
290.75 K, x1 = 0.573 | 914.122 ± 2.3
290.75 K, x1 = 0.587 | 904.315 ± 2.4
290.75 K, x1 = 0.615 | 891.079 ± 1.9
290.76 K, x1 = 0.3 | 992.118 ± 2.1
290.76 K, x1 = 0.325 | 990.346 ± 2
290.85 K, x1 = 0.246 | 1006.93 ± 2.2
290.85 K, x1 = 0.275 | 994.946 ± 2.2
290.85 K, x1 = 0.363 | 983.532 ± 2
290.85 K, x1 = 0.382 | 981.337 ± 2
290.85 K, x1 = 0.407 | 977.974 ± 2
290.85 K, x1 = 0.486 | 958.566 ± 2.1
290.85 K, x1 = 0.488 | 954.397 ± 2.1
290.85 K, x1 = 0.546 | 930.124 ± 2.2
290.85 K, x1 = 0.573 | 911.261 ± 2.4
290.85 K, x1 = 0.587 | 900.983 ± 2.5
290.86 K, x1 = 0.266 | 998.415 ± 2.2
290.86 K, x1 = 0.3 | 990.332 ± 2
290.86 K, x1 = 0.325 | 989.272 ± 2
290.86 K, x1 = 0.338 | 987.682 ± 2
